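Compound exposure: 48 hours, 5 concentrations, 96-well plates. GI50 marks 50% less growth.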 Active and inactive are the calls of the source. Rule as the data show it: active = GI50 up to about 1.1 µM and inactive = higher.
Legend:
Assay in all cases: NCI-60 cell line screen, 48 h
786-0 = tested on: 786-0
A549 = tested on: A549
ACHN = tested on: ACHN
HT-29 = tested on: HT-29
K562 = tested on: K562
M14 = tested on: M14
MDA-MB-435 = tested on: MDA-MB-435
MDA-N = tested on: MDA-N
NCI-H23 = tested on: NCI-H23
NCI-H460 = tested on: NCI-H460
NCI/ADR-RES = tested on: NCI/ADR-RES
PC-3 = tested on: PC-3
SF-268 = tested on: SF-268
SK-OV-3 = tested on: SK-OV-3
SNB-19 = tested on: SNB-19
U-251 = tested on: U-251
UACC-257 = tested on: UACC-257
EKVX = tested on: EKVX
HOP-92 = tested on: HOP-92

Structure (SMILES) | GI50 (786-0) | GI50 (A549) | GI50 (ACHN) | GI50 (HT-29) | GI50 (K562) | GI50 (M14) | GI50 (MDA-MB-435) | GI50 (MDA-N) | GI50 (NCI-H23) | GI50 (NCI-H460) | GI50 (NCI/ADR-RES) | GI50 (PC-3) | GI50 (SF-268) | GI50 (SK-OV-3) | GI50 (SNB-19) | GI50 (U-251) | GI50 (UACC-257) | GI50 (EKVX) | GI50 (HOP-92)
O=C1CCC2CCC1C2 (centres undefined) | > 100 µM (inactive) | > 100 µM (inactive) | > 100 µM (inactive) | > 100 µM (inactive) | > 100 µM (inactive) | > 100 µM (inactive) | > 100 µM (inactive) | > 100 µM (inactive) | > 100 µM (inactive) | > 100 µM (inactive) | > 100 µM (inactive) | > 100 µM (inactive) | > 100 µM (inactive) | > 100 µM (inactive) | > 100 µM (inactive) | > 100 µM (inactive) | > 100 µM (inactive) | – | –
CC(=O)C1C(=O)C(=O)N(c2ccccc2)C1=O (centres undefined) | > 100 µM (inactive) | > 100 µM (inactive) | > 100 µM (inactive) | > 100 µM (inactive) | – | > 100 µM (inactive) | > 100 µM (inactive) | > 100 µM (inactive) | > 100 µM (inactive) | > 100 µM (inactive) | > 100 µM (inactive) | > 100 µM (inactive) | > 100 µM (inactive) | > 100 µM (inactive) | > 100 µM (inactive) | > 100 µM (inactive) | > 100 µM (inactive) | > 100 µM (inactive) | > 100 µM (inactive)
COc1ccc(/N=N/C(=O)NC(CC(C)C)C(=O)NC(Cc2ccccc2)C(=O)O)cc1 (centres undefined) | > 100 µM (inactive) | 2.12 µM (inactive) | 0.347 µM (active) | > 100 µM (inactive) | 0.287 µM (active) | 0.459 µM (active) | 0.705 µM (active) | 0.7 µM (active) | 16.3 µM (inactive) | 3.78 µM (inactive) | > 100 µM (inactive) | 0.463 µM (active) | 1.53 µM (inactive) | – | 72.9 µM (inactive) | > 100 µM (inactive) | 3.41 µM (inactive) | 40.3 µM (inactive) | 16.2 µM (inactive)
CCN1CC2=C(NC(=S)NC2c2ccc(Cl)cc2)/C(=C/c2ccc(Cl)cc2)C1 (centres undefined) | 45.6 µM (inactive) | 29.7 µM (inactive) | 55.7 µM (inactive) | > 100 µM (inactive) | 19.5 µM (inactive) | > 100 µM (inactive) | 61.9 µM (inactive) | > 100 µM (inactive) | > 100 µM (inactive) | 18.5 µM (inactive) | > 100 µM (inactive) | 46.5 µM (inactive) | 77.4 µM (inactive) | > 100 µM (inactive) | 68.9 µM (inactive) | 45.3 µM (inactive) | > 100 µM (inactive) | > 100 µM (inactive) | –
N#CCCN(CCC#N)c1ccc(/C=C2\N=C(c3ccccc3)N(c3ccc(Cl)cc3)C2=O)cc1 | > 100 µM (inactive) | > 100 µM (inactive) | > 100 µM (inactive) | > 100 µM (inactive) | 48 µM (inactive) | > 100 µM (inactive) | 45.5 µM (inactive) | > 100 µM (inactive) | – | > 100 µM (inactive) | > 100 µM (inactive) | > 100 µM (inactive) | > 100 µM (inactive) | > 100 µM (inactive) | > 100 µM (inactive) | > 100 µM (inactive) | > 100 µM (inactive) | > 100 µM (inactive) | > 100 µM (inactive)

— ChEMBL document CHEMBL1201862, “PubChem BioAssay data set” (2004)
